Laboratory results published in PubChem BioAssay (NCI).
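Values below derive from 48-hour exposures of cells grown in 96-well plates, with endpoints linearly interpolated between the two concentrations bracketing the appropriate inhibition level. Here, GI50 denotes the concentration required for 50% inhibition of growth. TGI marks complete inhibition of growth.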

Assays:
Test in all cases: growth of human tumour cells (NCI), 48 h
786-0 renal = system: 786-0 renal
HCC-2998 colon = system: HCC-2998 colon
HL-60(TB) leukemia = system: HL-60(TB) leukemia
NCI-H226 lung = system: NCI-H226 lung
NCI-H23 lung = system: NCI-H23 lung
NCI-H460 lung = system: NCI-H460 lung
OVCAR-8 ovarian = system: OVCAR-8 ovarian
U251 CNS = system: U251 CNS
UO-31 renal = system: UO-31 renal
TK-10 renal = system: TK-10 renal

Compound	TGI (786-0 renal)	TGI (HCC-2998 colon) [µM]	TGI (HL-60(TB) leukemia)	TGI (NCI-H226 lung)	TGI (NCI-H23 lung)	TGI (NCI-H460 lung)	TGI (OVCAR-8 ovarian)	TGI (U251 CNS)	TGI (UO-31 renal)	TGI (TK-10 renal)	GI50 (786-0 renal)	GI50 (HL-60(TB) leukemia)	GI50 (NCI-H226 lung)	GI50 (NCI-H23 lung)	GI50 (NCI-H460 lung)	GI50 (OVCAR-8 ovarian)	GI50 (TK-10 renal)	GI50 (U251 CNS)	GI50 (UO-31 renal)	GI50 (HCC-2998 colon) [µM]
CC(=O)OC1COC(n2c(=S)n(-c3ccccc3)c(=O)c3cc(Br)ccc32)C(OC(C)=O)C1OC(C)=O (stereo not drawn)	> 100 µM	> 100	> 100 µM	> 100 µM	> 100 µM	> 100 µM	> 100 µM	44.5 µM	> 100 µM											
COC1OC(C)C(OCc2ccccc2)C(OS(=O)(=O)c2ccc(C)cc2)C1OS(=O)(=O)c1ccc(C)cc1 (stereo not drawn)	> 100 µM	> 100	> 100 µM	> 100 µM	> 100 µM	> 100 µM	> 100 µM	> 100 µM	> 100 µM											
OC(c1ccc(Br)cc1)(c1cccs1)C1CC1 (stereo not drawn)	36 µM	55.6	52.7 µM		56.9 µM	57.8 µM	54.1 µM	35.4 µM	48.1 µM	76.4 µM										
COc1cc2cnc3c4ccccc4ccc3c2cc1OC	> 100 µM	> 100			> 100 µM	> 100 µM	> 100 µM	> 100 µM	> 100 µM	> 100 µM										
CCCCCCCCCCCCCC(=O)OCC1OC(=O)CC1O (stereo not drawn)	> 100 µM	> 100	> 100 µM		> 100 µM	> 100 µM	> 100 µM	> 100 µM	81.6 µM	> 100 µM										
CSc1c(C)c(C)nn1-c1ccccc1	> 100 µM	> 100	> 100 µM		> 100 µM	> 100 µM	> 100 µM	> 100 µM	> 100 µM	> 100 µM										
OC(CN1CC1)C(O)CN1CC1 (stereo not drawn)	> 50 µg/mL		> 50 µg/mL	> 50 µg/mL	> 50 µg/mL	> 50 µg/mL	> 50 µg/mL	> 50 µg/mL	> 50 µg/mL	> 50 µg/mL	> 50 µg/mL	> 50 µg/mL	> 50 µg/mL	> 50 µg/mL	> 50 µg/mL	> 50 µg/mL	> 50 µg/mL	> 50 µg/mL	> 50 µg/mL	
O=C(c1ccc2ccccc2c1)c1c(C(F)(F)F)n([O-])c2ccc(Cl)cc2[n+]1=O	3.09 µM	2.6	3.29 µM	3.56 µM		3.34 µM	2.91 µM	3.03 µM	2.55 µM	3.35 µM	1.64 µM	1.59 µM	1.82 µM		1.75 µM	1.55 µM	1.81 µM	1.67 µM	1.29 µM	1.26
C=CCSc1nc2ccccc2c(=O)n1Cc1ccco1	> 100 µM	> 100		> 100 µM	> 100 µM	> 100 µM	> 100 µM	> 100 µM	> 100 µM	> 100 µM										
Cn1c2ccccc2c2c(=O)c3ccccc3[nH]c21	> 100 µM		> 100 µM	> 100 µM	> 100 µM	> 100 µM	> 100 µM	> 100 µM	> 100 µM	> 100 µM	33.7 µM	70.6 µM	38.8 µM	30.5 µM	32.4 µM	> 100 µM	42.4 µM	35.8 µM	58.2 µM	
O=C1c2cccnc2-c2nc(-c3ccncc3)cc3c2c1nc1ccccc13	39.9 µM		89.6 µM	22.8 µM	28 µM	19.5 µM	24 µM	64.5 µM	> 100 µM	40.2 µM	15 µM	12.3 µM	10.9 µM	12.5 µM	6.29 µM	10.5 µM	19.5 µM	12 µM	33.2 µM	
CCOC(=O)C(=O)Nc1ccccc1C(F)(F)F	> 100 µM	> 100		> 100 µM	> 100 µM	> 100 µM	> 100 µM	> 100 µM	> 100 µM	> 100 µM										
C[C@H]1[C@H](C)CC[C@]2(C(=O)NCCNCCN)CC[C@]3(C)C(=CC[C@@H]4[C@@]5(C)CCC(=O)C(C)(C)[C@@H]5CC[C@]43C)[C@H]12	3.18 µM	3.07		45.5 µM	8.3 µM	3.28 µM		3.17 µM	2.86 µM	3.75 µM	1.74 µM		14.8 µM	2.8 µM	1.77 µM		1.84 µM	1.66 µM	1.53 µM	1.66
CN(C)Cc1c[nH]c2c(NCCN)c3c(c(NCCN)c12)C(=O)c1ccccc1C3=O	7.8 µM	8.37		5.35 µM	8.99 µM	26.8 µM	11 µM	1.87 µM	26 µM	9.49 µM	0.71 µM		1.56 µM	2.22 µM	8.04 µM	0.726 µM	3.25 µM	0.394 µM	8.58 µM	2.45
Cn1cc(-c2csc(-c3cn(C)c4ccccc34)n2)c2cnccc21	3.53 µM	2.6	4.09 µM		3.44 µM	3.49 µM	6.7 µM	3.45 µM	3.16 µM	4.18 µM	1.95 µM	1.94 µM		1.64 µM	1.79 µM	2.68 µM	2.25 µM	1.86 µM	1.47 µM	1.26
c1ccc2nc3c(cc4ccccn43)nc2c1	> 100 µM	> 100	> 100 µM		> 100 µM	> 100 µM	> 100 µM	> 100 µM	> 100 µM	55.1 µM	35.7 µM	> 100 µM		37.6 µM	> 100 µM	34.8 µM	8.36 µM	39.9 µM	6.25 µM	61.8
